Laboratory results as given in US6066340A, “Process for the preparation of microspheres containing biologically active components” (Fidia S.p.A., priority 1991, dated 2000).

Experiment: GM1 plasma levels after intramuscular administration
Assay type: in vivo, New Zealand rabbits
Conditions: 2 mg/kg i.m.
Procedure: Microspheres of different dimensions of HYAFF-11 containing GM1 (10-40 μm) were prepared as described in Examples 29-30.
The ganglioside was administered by intramuscular route to groups of New Zealand rabbits (weighing 2.5 kg) at a concentration of 2 mg/kg.
At the set times, 2.5 ml of blood was withdrawn from the median artery of the ear. Each blood sample was incubated at 37° C. for one hour and then refrigerated overnight at 4° C. The samples were then centrifuged and the upper layer of serum was removed. 2 ml of tetrahydrofurane (THF) were added to 500 μl of serum for the determination of the GM1 content. The sample was stirred and centrifuged and the upper layer was stored. The precipitate was treated twice with […] of THF and 500 μl of phosphate buffer (50 mM) and centrifuged. The upper layers thus obtained were extracted with ethyl ether after separation of the aqueous phase, the organic phase was further extracted with water. The two aqueous phases were then mixed and freeze-dried. The freeze-dried product was redissolved in water and the GM1 content determined by the ELISA test.

Substance: monosialoganglioside GM1
- Area under curve after i.m. administration of GM1 (1st study): 127.74 µg/h/mL
- Area under curve after i.m. administration of GM1 (2nd study): 134.43 µg/h/mL
